Data reported in paper PMC12081870 (Communications Biology, 2025).

Tests used:
[1] = test system: Las17-GFP and Arc15-mCherry; assay: Dual-reporter lifetimes, Las17-GFP and Arc15-mCherry co-localisation; type: cell-based, Saccharomyces cerevisiae; details: Las17-GFP / Arc15-mCherry dual-label strain
Experimental: A size bar for each set of kymographs is shown on the upper right of each set. For (A) and (C) size bar is 100 nm and for B is 200 nm. Error bars are standard deviation. […] The site of interest is labelled in the first two time panels with a white arrow. Exposure 0.5 sec with 1 second time lapse. 120 s recorded. […] Error bars are standard deviation.
Individual spots were analysed for lifetimes and behaviours.
Yeast strains used in this study are listed in Supplementary table 2 and plasmids used in Supplementary table 1. Unless stated otherwise, cells were grown with rotary shaking at 30 °C in liquid YPD medium (1% yeast extract, 2% Bacto-peptone, 2% glucose supplemented with 40 μg/ml adenine) or in synthetic medium (0.67% yeast nitrogen base, 2% glucose) with appropriate supplements. […] DNA cassettes carrying mutations for integration were transformed into KAY1801. Mutant colonies were counter-selected on minimal medium, containing 0.005% uracil and 0.1% 5’-Fluoroorotic Acid (5-FOA; Melford laboratories). Allele exchange, in growing Ura3^-, 5-FOA resistant colonies, was confirmed by PCR and sequencing.
For live-cell imaging, cells expressing tagged proteins were visualised after growing to early log phase. Analysis was carried out at room temperature (22 °C). […] Images were taken simultaneously on separate scientific complementary metal oxide semiconductor (sCMOS) cameras (30 msec exposure). Seven 250 nm sections were acquired every 0.5 sec (241 time points). The stacks were then deconvolved and processed, using SoftWorx. Protein localisation and lifetime was analysed from those projections. Fiji software was used to assemble movies and kymographs, to track and record behaviour of individual spots. Graphs show mean ± SD. […] Where appropriate data was tested for normal distribution using Graphpad Prism software, and then subjected to the appropriate test as described in the methods for each experiment type.

actin [2] = assay: TIRF assay, actin filament growth (elongation) rate; type: biochemical, rabbit; details: 0.5 µM actin, vs actin only
Experimental: (§1) Actin filament growth rate assays. Total Internal Reflection microscopy (TIRFm) was performed using a method modified from[58] using purified rabbit muscle actin and Alexa488 actin (Cytoskeleton, Inc) at a 4:1 ratio. Glass coverslips (Deckgläser) were cleaned using a modification of the method described. Briefly, coverslips were rinsed with gentle agitation in acetone (30 min), then water (5 min) then cleaned in Piranha solution (13 ml concentrated sulphuric acid and 6 ml hydrogen peroxide) for 90 min before rinsing with distilled water and ethanol, drying and coating with 1 mg/ml mPEG silane MW 2000 (Layssan Bio). TIRF reaction buffers 10× KMEI, GOC mixture, and methyl cellulose (400 cP, Sigma) were prepared in advance. 10× KMEI buffer (500 mM KCl, 100 mM Imidazole (pH 7.0), 10 mM MgCl2, 10 mM EGTA (pH 7.0)) was filtered through a sterile syringe-filter device (0.22 μm, Thermo Fisher Scientific) and stored at room temperature. GOC mixture was prepared by dissolving 20 mg of Catalase (Calbiochem) and 100 mg of Glucose-oxidase in 10 ml cold water. Undissolved particles were cleared by ultracentrifugation and 50 μl aliquots from the upper 90% of the supernatant were stored at −20 °C. 50 ml of 2% methyl cellulose was prepared by dissolving 1 g methylcellulose in 25 ml of Milli-Q water preheated to 65 °C, before adding 25 ml of room temperature water and rotating overnight at 4 °C. […]

actin [3] = assay: TIRF assay, nucleation of actin filaments (filament number); type: biochemical, rabbit
Experimental: To assess how filaments generated in the presence or absence of Arp2/3 differ, a TIRF-based assay was used. Videos of representative assays are shown in Supplementary Videos 1, 2, 3 and combined in Supplementary Video 4.
as §1, with “water.” for “water. Undissolved particles were cleared by ultracentrifugation and 50 μl aliquots from the upper 90% of the supernatant were stored at −20 °C. 50 ml of 2% methyl cellulose was prepared by dissolving 1 g methylcellulose in 25 ml of Milli-Q water preheated to 65 °C, before adding 25 ml of room temperature water and rotating overnight at 4 °C.”

Las17 = details: cell free extracts; ref [24]; cited from earlier work
Excerpt: The model predicts an extensive interaction surface highlighted in red (Fig. 7E).

[4] = test system: Sla1 inhibition of Las17-mediated actin polymerisation; assay: Pyrene actin assay, alleviation of Sla1 inhibition of Las17-mediated actin polymerisation; type: biochemical; details: Arp2/3-independent, activated Sec4, Las17 300 nM, Sla1 SH3 1+2+3 300 nM, 3 µM actin
Experimental: Fluorometry assays were performed as described previously. 370 μl assays used 3 μM actin as indicated unless otherwise specified. Pyrene-actin was added to 5%, mixed thoroughly, and added to the fluorometry cuvette. Polymerization salts, 10× KME (500 mM KCl, 10 mM MgCl2, 10 mM EGTA, 100 mM Tris-HCl [pH 8.0]) were mixed with fragments or G buffer to give final concentration of 0.5× KME before reading fluorescence. […] Experiments were carried out three separate times with different protein preparations and a representative graph shown.
Liposome binding assays were carried out as described previously. To prepare liposomes 11 μl of a 25 mg/ml solution of Folch fraction-1 was dried under a nitrogen stream. They were washed in chloroform, dried under nitrogen, and further washed with diethyl ether to remove all traces of chloroform before being dried again. […] The pellets were resuspended in 50 µl buffer B and samples were analysed by SDS-PAGE. The proportion of protein in each sample was determined by densitometry of the Coomassie stained gels using a BioRad GelDoc. […] To normalise the data the amount of protein in the supernatant and pellet of each sample was added together to give a value for 100%, and then the % in either the supernatant or pellet alone was calculated. […]

[5] = test system: Sla1 inhibition of Las17-mediated actin polymerisation; details: with Arp2/3; ref [24]; cited from earlier work
Excerpt: As shown in vitro in Fig. 7D, the addition of activated Sec4 to pyrene assays does indeed rel ...

Substance | duration of co-localization of Las17-GFP and Arc15-mCherry [1] | time of Arc15-mCherry alone after Las17 disassembly [1] | time of Las17 at the site before Arc15 is recruited [1] | effect on elongation rate of actin filaments (actin [2]) | increase in nucleation rate compared to actin alone (actin [3]) | number of filaments (actin [3]; 10 minute time point, 500 nM actin, 50 nM Las17, per unit area, errors are standard deviation, actin alone 16.3 ± 2.3) | direct binding to Las17 (Las17) | relief of Sla1 inhibition of Las17-mediated actin polymerisation [4] | relief of Sla1-SH3 inhibition of Las17-Arp2/3-mediated actin nucleation [5]
Las17: Las17 fragment; residues not stated for TIRF; in b194 Las17 300–422; in b52 full length Las17-GFP in cells | about 15 seconds | about 4 s | about 22 s | sufficient to increase the elongation rate of actin filaments | two-three fold | 42.3 ± 7.0 | – | – | –
Sec4: small GTPase Sec4 (full length) | – | – | – | – | – | – | could bind directly to Las17 | does indeed relieve inhibition of Las17-mediated actin polymerisation | alleviated Sla1-SH3 domain inhibition of Las17-Arp2/3-mediated actin nucleation
